Measurements: a melting point compilation (Tetko et al.)
Starred links: 1 amine or outer side, 2 acyl side, 3 side chain; linkers in the order of their positions; H or OH if unused. Non-standard residues stand in square brackets, D forms with d. Residues, ends and D or L forms follow the SMILES beside them. *: point of attachment. Cyclohexanecarbonyl = O=C(C1CCCCC1)*; Phe(2-Me) = Cc1ccccc1C[CH](N)C(=O)O; X2 = CC(F)(F)CC(N[*:1])C(=O)[*:2]; Suc = O=C(CCC(=O)[*:2])[*:1]; Tle = CC(C)(C)[CH](N)C(=O)O; Bn = c1ccc(C*)cc1

Row | SMILES | melting point [°C]
1 | COc1cc(OC)c(/C=C/C(c2ccc(OC)c(NC(=O)COC(C)=O)c2)S(=O)(=O)C(/C=C/c2c(OC)cc(OC)cc2OC)c2ccc(OC)c(NC(=O)COC(C)=O)c2)c(OC)c1 (stereo unspecified) | 192 to 194
2 | O=c1cc(-c2ccc(OCCOCCOCCOCCOCCOCCOCCOCCOCCOc3ccc(-c4cc(=O)c5c(O)cc(O)cc5o4)cc3)cc2)oc2cc(O)cc(O)c12 | 135 to 137
3 | N=C(NC(=O)OCc1ccccc1)N(CCCC(NC(=O)C(Cc1ccccc1)NC(=O)OCc1ccccc1)C(=O)Oc1cccc2ccccc12)C(=O)OCc1ccccc1 (stereo unspecified) | 125 to 130
4 | O=S(c1cc(C(F)(F)F)[nH]c1-c1ccc(Cl)cc1)C(F)(F)F (stereo unspecified) | 198 to 200
5 | COc1cc(OC)c(C=CC(c2ccc(OC)c(CC(=O)O)c2)(S(N)(=O)=O)S(=O)(=O)C(C=Cc2c(OC)cc(OC)cc2OC)(c2ccc(OC)c(CC(=O)O)c2)S(N)(=O)=O)c(OC)c1 (stereo unspecified) | 180 to 184
6 | N=S(=O)(C=Cc1ccccc1N)c1ccccc1 (stereo unspecified) | 95 to 96
7 | CN=S(=O)(NC(=O)Nc1nc(OC)cc(OC)n1)c1ccccc1Br (stereo unspecified) | 120 to 125
8 | COc1cc(OC)c(/C=C/C(c2ccc(OC)c(NC(=O)c3ccc([N+](=O)[O-])cc3)c2)S(=O)(=O)C(/C=C/c2c(OC)cc(OC)cc2OC)c2ccc(OC)c(NC(=O)c3ccc([N+](=O)[O-])cc3)c2)c(OC)c1 (stereo unspecified) | 206 to 208
9 | Nc1cccc(CN2C(=O)C3(COc4cc5c(cc43)OCCO5)c3ccccc32)n1 (stereo unspecified) | 240 to 241
10 | CC(C)(C)OC(=O)NC(Cc1cc(I)c(Oc2cc(I)c(O)c(I)c2)c(I)c1)C(=O)O (stereo unspecified) | 212
11 | CCOC(=O)c1cc2cc(OC)cc(NS(=O)(=O)c3cccs3)c2[nH]1 | 158 to 159
12 | COc1cc(OC)c(/C=C/C(c2ccc(OC)c(NC(=O)c3ccc(N)cc3)c2)S(=O)(=O)C(/C=C/c2c(OC)cc(OC)cc2OC)c2ccc(OC)c(NC(=O)c3ccc(N)cc3)c2)c(OC)c1 (stereo unspecified) | 137 to 140
13 | CCn1cc(C(=O)Nc2cc(Oc3ccc4nc(NC(=O)C5CC5)cn4n3)ccc2Cl)c(C)n1 | 200
14 | O=C(Oc1cccc2cc3cccc(OC(=O)c4ccccc4Oc4ccccc4)c3c(OC(=O)c3ccccc3Oc3ccccc3)c12)c1ccccc1Oc1ccccc1 | 110
15 | CCCSC(=O)c1ccc([Si](CCC(F)(F)C(F)(F)C(F)(F)C(F)(F)C(F)(F)C(F)(F)C(F)(F)C(F)(F)C(F)(F)C(F)(F)F)(CCC(F)(F)C(F)(F)C(F)(F)C(F)(F)C(F)(F)C(F)(F)C(F)(F)C(F)(F)C(F)(F)C(F)(F)F)CCC(F)(F)C(F)(F)C(F)(F)C(F)(F)C(F)(F)C(F)(F)C(F)(F)C(F)(F)C(F)(F)C(F)(F)F)cc1 | 69 to 71
16 | CS(=O)(=O)c1ccc(C(Cc2ccccc2Cl)C(=O)Nc2nc3ccccc3o2)cc1 (stereo unspecified) | 107 to 108
17 | ON=C(Cl)c1ccc(Cl)cc1 | 87.5
18 | CSC1=NCc2cc(Cl)ccc2-n2c(C)nnc21 | 248 to 250
19 | [C-]#[N+]CCC(O)COc1ccc(C(C)(C)C)cc1 (stereo unspecified) | 69 to 72
20 | CCCCCCCCCCCCCCCCOC(=O)c1ccc(C(=O)N(CCCCCCCCCCCCCCCC)OCCCCCCCCCCCCCCCC)nc1 | 93 to 95
21 | CCOC(=O)C(C)OC1C(Cl)=C(OC2=C(Cl)C(OC(C)C(=O)OCC)C(c3ccccc3C(F)(F)F)([N+](=O)[O-])C=C2)C=CC1(c1ccccc1C(F)(F)F)[N+](=O)[O-] (stereo unspecified) | 71 to 74
22 | CCOC(=O)c1cnc2c(c(C)nn2C)c1NCS(=O)(=O)c1ccc(Oc2ccc(Cl)cc2)cc1 | 52 to 55
23 | Nc1n[nH]cc1C(=O)O | 135
24 | O=C(Cc1cc(I)c(Oc2cc(I)c(OCC3CO3)c(I)c2)c(I)c1)OCC1CO1 (stereo unspecified) | 116
25 | CS(C)(=O)=NC(=O)c1cccc(Oc2ccc(C(F)(F)F)cc2Cl)c1 | 110 to 113
26 | CC(=O)OCC(CNC(=O)c1c(I)c(C(=O)NCC(COC(C)=O)OC(C)=O)c(I)c(N2CCCC2=O)c1I)OC(C)=O (stereo unspecified) | 130 to 133
27 | CCC1(CC)c2cc(-c3nc4cc5sc(-c6ccc7c(c6)C(CC)(CC)c6cc(N(c8ccccc8)c8ccccc8)ccc6-7)nc5cc4s3)ccc2-c2ccc(N(c3ccccc3)c3ccccc3)cc21 | 180 to 183
28 | CCCCCCCCCCCCCCCCCC(=O)OCC(COC(=O)C(N)Cc1ccc(N(CCCl)CCCl)cc1)OC(=O)CCCCCCCCCCCCCCCCC (stereo unspecified) | 82 to 83

Now from value to molecule:

Row | melting point [°C] | SMILES
29 | 208 to 210 | CCCCCCCCCCCCCCCCCCN(Cc1c(C)cc(C(C)(C)C)c(O)c1C)S(=O)(=O)c1ccc(-c2ccc(S(=O)(=O)N(CCCCCCCCCCCCCCCCCC)Cc3c(C)cc(C(C)(C)C)c(O)c3C)cc2)cc1
30 | 135 to 137 | COc1ccc(OC)c(CCNC(=O)N[C@H](Cc2cc(Br)c(O)c(Br)c2)C(=O)N[C@@H](CCCCN)C(=O)N2CCN(c3ccncc3)CC2)c1
31 | 158 to 160 | COC(=O)C(CC(C)C)NC(=O)C(Cc1ccc(OCc2ccccc2)cc1)NC(=O)C(COCc1ccccc1)NC(=O)C(Cc1c[nH]c2ccccc12)NC(=O)C1CCCCC1 (Cyclohexanecarbonyl-WS(Bn)Y(Bn)L-OMe; configuration not given here)
32 | 109 | CC(C)[Si](OC(=O)C(Cc1cc(I)c(Oc2cc(I)c(OCC3CO3)c(I)c2)c(I)c1)NC(=O)OC(C)(C)C)(C(C)C)C(C)C (stereo unspecified)
33 | 93.3 | C=CC(=O)OCCCCCCCCCCCOc1ccc(-c2nc(-c3ccccc3)nc(-c3ccc(OCCCCCCCCCCCOC(=O)C=C)cc3O)n2)c(O)c1
34 | 325 to 330 | CC1(C)CC(N(c2nc(N(C3CC(C)(C)NC(C)(C)C3)C3CC(C)(C)NC(C)(C)C3)nc(N(C3CC(C)(C)NC(C)(C)C3)C3CC(C)(C)NC(C)(C)C3)n2)C2CC(C)(C)NC(C)(C)C2)CC(C)(C)N1
35 | 128 to 130 | Cc1ccccc1CC(NC(=O)C(CCC(=O)O)NC(=O)C(CC(=O)O)NC(=O)CCC(=O)O)C(=O)NC(C(=O)NC(CC(C)C)C(=O)NC(C=O)CC(C)(F)F)C(C)(C)C (stereo unspecified) (Suc-DE[Phe(2-Me)][Tle]L[X2]-aldehyde; configuration not given here)
36 | 151 to 152 | CCCCCCCCCCCCS(=O)(=O)Nc1cc(C(=O)Nc2ccc(Cl)c(Cl)c2)ccc1OC
37 | 66 to 79 | CCC(COC(=O)CCc1cc(C(C)(C)C)c(O)c(C(C)(C)C)c1)(COC(=O)CCc1cc(C(C)(C)C)c(O)c(C(C)(C)C)c1)COC(=O)CCc1cc(C(C)(C)C)c(O)c(C(C)(C)C)c1
38 | 51 to 53 | CCc1nc(C)c(C(=O)OCOC(=O)C(C)(C)C)n1Cc1ccc2oc(-c3ccccc3-c3nnn(C(c4ccccc4)(c4ccccc4)c4ccccc4)n3)c(Br)c2c1
39 | 193 to 197 | CCC(O)C=CC=CC=CC(=O)OCC1OC(OC2C(CO)OC3(OCc4cc(O)cc(O)c43)C(O)C2OC(=O)C=CC=CCC(O)C(C)=CC=CCCC(C)CC)C(O)C(O)C1O (stereo unspecified)
40 | 94 to 95 | CCCCCCCCNC1(NC(=O)c2ccccc2-c2ccc(CCCCCCCC)cc2)CC(CCCC)=C(NC(=O)c2ccccc2-c2ccc(CCCCCCCC)cc2)C2=C1C(=O)c1ccccc1C2=O (stereo unspecified)
41 | 100 | CC(=O)ON=C(N)c1ccc(CN(CCCCNC(=O)OC(C)(C)C)C(=O)CNC(=O)CN(CCc2ccccc2)S(=O)(=O)c2ccc(Cl)c(C)c2Cl)cc1
42 | 196 to 203 | CC(=O)OC12COC1CC(O)C1(C)C(=O)C(O)C3=C(C)C(OC(=O)C(O)C(NC(=O)OC(C)(C)C)c4ccccc4)CC(O)(C(OC(=O)c4ccccc4)C21)C3(C)C (stereo unspecified)
43 | 59 to 61 | CC(C)=CCCC(C)=CCCC(C)=CCCC(C)=CCCC(C)=CCCC(C)=CCCC(C)=CCCC(C)=CCCC(C)=CCCC(C)=CCNCC12CCCN1CCC2
44 | 114 to 117 | O=C(OCCCCCCOC1CCCCO1)c1ccc(Oc2c3c(c(Oc4ccc(C(=O)OCCCCCCOC5CCCCO5)cc4)c4ccccc24)C(=O)c2ccccc2C3=O)cc1 (stereo unspecified)
45 | 269 | CC(C)(C)c1cc(C(C)(C)C)c2op(Op3oc4c(C(C)(C)C)cc(C(C)(C)C)cc4c4cc(C(C)(C)C)cc(C(C)(C)C)c4o3)oc3c(C(C)(C)C)cc(C(C)(C)C)cc3c2c1
46 | 104 to 106 | CC(C)(C)c1cc(CCC(=O)OCCOc2ccc(C(C)(C)c3ccc(OCCOC(=O)CCc4cc(C(C)(C)C)c(O)c(C(C)(C)C)c4)cc3)cc2)cc(C(C)(C)C)c1O
47 | 124 to 128 | CCO[Si](CCCCOc1ccc(S(=O)(=O)c2ccc(OCCCC[Si](OCC)(OCC)OCC)cc2Cc2ccc(C(F)(F)F)cc2)c(Cc2ccc(C(F)(F)F)cc2)c1)(OCC)OCC
48 | 168 to 170 | CCCCCCCCCCCCSc1nc(N(C2CC(C)(C)NC(C)(C)C2)C2CC(C)(C)NC(C)(C)C2)nc(N(C2CC(C)(C)NC(C)(C)C2)C2CC(C)(C)NC(C)(C)C2)n1
49 | 160 to 162 | C=CCNc1nc(NC(C)(C)CC(C)(C)C)nc(N(CCCCCCN(c2nc(NCC=C)nc(NC(C)(C)CC(C)(C)C)n2)C2CC(C)(C)NC(C)(C)C2)C2CC(C)(C)NC(C)(C)C2)n1
50 | 194 to 196 | CCOC(CN1C(=O)C2=C(c3cc4cc(C(C)(C)C)cc(C(C)(C)C)c4o3)N(CC(OCC)OCC)C(=O)C2=C1c1cc2cc(C(C)(C)C)cc(C(C)(C)C)c2o1)OCC
51 | 80 to 82 | C=CCOC1OC(CO)C(O)C(OC(=O)CC(CCCCCCCCCCC)OCc2ccccc2)C1NC(=O)CC(CCCCCCCCCCC)OCc1ccccc1 (stereo unspecified)
52 | 211 to 216 | CCCc1c(CC[Si](Cl)(Cl)Cl)c(CC[Si](Cl)(Cl)Cl)c(CC[Si](Cl)(Cl)Cl)c(CC[Si](Cl)(Cl)Cl)c1CC[Si](Cl)(Cl)Cl
53 | 101 to 111 | CCc1cn(C2OC(CNC(=O)C(C)Oc3cc(OC)c(Br)cc3Br)C(OC(=O)C(NC(=O)OC(C)(C)C)C(C)C)C2F)c(=O)[nH]c1=O (stereo unspecified)
54 | 205 to 207 | CCc1nc(OC)c(NC(=O)N2CCN(c3cc(OC)c(OC)c(OC)c3)CC2)cc1C(=O)NC(C)C(=O)Nc1cc(CO)cc(Nc2c3ccccc3nc3ccccc23)c1 (stereo unspecified)
55 | 130 to 132 | CC(C)CC1C(=O)OC(Cc2ccccc2)C(=O)N(C)C(CC(C)C)C(=O)OC(C)CN(C)C(CC(C)C)C(=O)OC(Cc2ccccc2)C(=O)N(C)C(CC(C)C)C(=O)OC(C)CN1C (stereo unspecified)
56 | 125 to 127 | CC(C)OC(=O)C(CCC(C(=O)OC(C)C)N1CCN(CC(=O)OC(C)(C)C)CCN(C=O)CCN(CC(=O)OC(C)(C)C)CC1)N1CCN(CC(=O)OC(C)(C)C)CCN(C=O)CCN(CC(=O)OC(C)(C)C)CC1 (stereo unspecified)
